Measurements: article PMC6273209, “Evaluation of the Enantiomer Specific Biokinetics and Radiation Doses of [^18F]Fluspidine—A New Tracer in Clinical Translation for Imaging of σ1 Receptors” (Molecules, 2016)

How the values were obtained:
[1] = system: σ1 receptors; design: method as in PMID 25071097; conditions: σ1-rich areas of the porcine brain; cited from earlier work
[2] = Acute toxicity study, single intravenous injection; format: in vivo; conditions: single intravenous administration, Wistar rats, day 2 and day 15; highest tested dose
Source text: Supplementary Materials: Evaluation of the Enantiomer Specific Biokinetics and Radiation Doses of [18F]Fluspidine—A New Tracer in Clinical
Translation for Imaging of σ1 Receptors […]
Supplemental Methods and Results
Animal Toxicity Study of (S)-(−)-Fluspidine
The purpose of this study was to assess the acute toxicity of (S)-(−)-fluspidine when administered by a single intravenous injection to rats followed by an observation period of 2 or 15 day (in accordance with EU cGLP). Briefly, the study was performed with 4 test groups, including 1 control (saline and dimethylsulfoxide) and 3 dose groups (6.2, 62 and 620 µg/kg, (S)- (−)ﬂuspidine), with Wistar rats (60 m, 60 f, 12 weeks) divided into two experiments: day 2 (40 males and 40 females) and day 15 (20 males and 20 females). The animals were weighted and allocated to the test groups based on their actual body weights. The animals were sacrificed at two time periods (day 2 and day 15 after test item administration) and then examined macroscopically and histopathologically. In addition the following parameters were evaluated: mortality, clinical observation (spasms, tremor and hyperactivity), body weights, food consumption, haematology (white blood cells, red blood cells, hemoglobin, hematocrit, mean corpuscular volume, mean corpuscular hemoglobin, platelets, lympohcytes, neutrophils, eosinophils, basophils, monocytes), clinical chemistry (alkaline phosphatase, aspartate aminotransferase, alanine aminotransferase, glucose, cholesterol, triacylglycerols, creatinine, urea, bilirubin, albumin, calcium, phosphorus, sodium, potassium chloride), pathology and histopathology. […]
in either gender were detected. The food consumption corresponded with body weight development. All haematology parameter´s values on day 2 and day 15 were within physiological range for this species. Individual divergences of some values of the haematology parameters were slight and not connected with treatment.
There were no findings in clinical chemistry parameters which could be definitively considered as adverse. The average values of all test groups were within the historical control ranges. Occasional changes had no dose relationship, they were considered to be a result of intraindividual and interindividual variability for this species. […]
histopathological parameters on day 2 and day 15. The no observed effect level (NOEL) of (S)- (−)-fluspidine after single intravenous administration in this study for both day 2 and day 15 was determined to be 620 µg/kg.

[18F]CC[C@H]1OC2(CCN(Cc3ccccc3)CC2)c2ccccc21 [(R)-(+)-[^18F]fluspidine]
binding potential (BPnd), fold higher in comparison to (S)-(−)-[^18F]fluspidine [1]: 5- to 10 fold

FCC[C@@H]1OC2(CCN(Cc3ccccc3)CC2)c2ccccc21 [(S)-(−)-[^18F]fluspidine]
no observed effect level (NOEL) [2]: ≥ 0.6 mg/kg
